# According to US8871758B2, “Tetrasubstituted oxathiazine derivatives, method for producing them, their use as medicine and drug containing said derivatives and the use thereof” (Sanofi, priority 2011, dated 2014):
# Target: T1, human 11β-HSD1 (Homo sapiens, UniProt P28845)
# T1 construct: host or cells: microsome fraction
# Experiment: Enzymatic 11beta-HSD1 test (SPA-based detection)
# Assay type: biochemical
# Conditions: human 11β-HSD1 microsome fraction, [1,2-3H]-cortisone substrate, NADPH, 37° C. 1 hour, read-out: IC50 (nM), Biological activity in nanomolar
# Experimental: Enzymatic 11beta-HSD1 Test:
# First of all, 20 μl of the human 11β-HSD1 microsome fraction (0.2 μg of protein), prepared in 50 mM HEPES, 0.1% BSA (w/v), were applied to a plate with 384 wells. The test compounds (0.09 μl) were applied to the assay plate in 100% DMSO. The reaction was started by addition of 20 μl of [1,2-^3H]-cortisone (0.1 μCi/[…]) in assay buffer comprising 25 mM HEPES, 100 mM KCl, 5 mM NaCl, 2 mM MgCl2 and 0.25 mM NADPH. The plate was agitated at 37° C. for 1 hour. At the same time, a stop solution comprising 20 mg/ml SPA-PVT beads, 1.6 mg/ml monoclonal cortisol antibody and 0.01 mM SSR110887 (inhibitor from the Biovitrium patent) in 50 mM HEPES, 1 M NaCl and 1 M KCl was stirred at room temperature. To stop the reaction, 25 μl of the stop solution were added to each well. The plate was agitated gently at room temperature for 1 further hour and then centrifuged at 500 gav for 1 min, in order that the SPA beads could settle out. […] The comparative compound was glycyrrhetinic acid.
# Protein and radioactive substrate were dispensed with a Biomek FX unit (Beckman Coulter) for handling liquids. The test compounds were added with a Cybi-Well equipped with a 90 n1 pin tool (CyBio).
# Lit.: Solly S, Mundt S S, Zokian H J, Juy-Fang Ding G, Hermanowski-Vosatka A, Strulovici B and Zheng W. High-throughput screening of 11β-Hydroxysteroid dehydrogenase type 1 in scintillation proximity format.
# T1 sequence (P28845 whole entry): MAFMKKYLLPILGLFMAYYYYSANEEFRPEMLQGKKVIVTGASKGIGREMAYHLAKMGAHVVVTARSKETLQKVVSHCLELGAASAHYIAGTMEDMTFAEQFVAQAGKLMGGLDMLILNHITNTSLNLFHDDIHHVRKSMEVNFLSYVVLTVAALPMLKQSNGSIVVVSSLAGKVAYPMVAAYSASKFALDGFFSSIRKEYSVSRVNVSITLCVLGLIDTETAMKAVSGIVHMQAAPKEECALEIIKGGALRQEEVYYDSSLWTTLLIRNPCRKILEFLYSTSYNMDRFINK
row,IC50,Compound
1,10 nM,"CC1(C)OC(N[C@@H](CS(N)(=O)=O)c2ccc(F)cc2)=NS(=O)(=O)C1(C)C (single isomer, unassigned) [Example 14]"
2,462 nM,"COCC1(C)OC(NC2CCCCC2)=NS(=O)(=O)C12CC2 (stereo not shown) [Example 4, Cyclohexyl-(8-methoxymethyl-8-methyl-4,4-dioxo-7-oxa-4lambda6-thia-5-aza-spiro[2.5]oct-5-en-6-yl)-amine]"
3,37 nM,"CC1(C)OC(N[C@@H](CCO)c2ccccc2)=NS(=O)(=O)C12CC2 [Example 5, (S)-3-(8,8-Dimethyl-4,4-dioxo-7-oxa-4lambda6-thia-5-aza-spiro[2.5]oct-5-en-6-ylamino)-3-phenyl-propan-1-ol]"
4,73 nM,"CC1(COCc2ccccc2)OC(NC2CCCCC2)=NS(=O)(=O)C12CC2 (stereo not shown) [Example 6, (8-Benzyloxymethyl-8-methyl-4,4-dioxo-7-oxa-4lambda6-thia-5-aza-spiro[2.5]oct-5-en-6-yl)-cyclohexyl-amine]"
5,786 nM,"CC1(CO)OC(NC2CCCCC2)=NS(=O)(=O)C12CC2 (stereo not shown) [Example 7, (6-Cyclohexylamino-8-methyl-4,4-dioxo-7-oxa-4lambda6-thia-5-aza-spiro[2.5]oct-5-en-8-yl)-methanol]"
6,22 nM,"CC1(C)OC(NC23CCC(F)(CC2)CC3)=NS(=O)(=O)C12CC2 [Example 8, (8,8-Dimethyl-4,4-dioxo-7-oxa-4lambda6-thia-5-aza-spiro[2.5]oct-5-en-6-yl)-(4-fluoro-bicyclo[2.2.2]oct-1-yl)-amine]"
7,4 nM,"CC1(C)OC(NC23CCC(F)(CC2)CC3)=NS(=O)(=O)C1(C)C [Example 9, (4-Fluoro-bicyclo[2.2.2]oct-1-yl)-(5,5,6,6-tetramethyl-4,4-dioxo-5,6-dihydro-4H-4lambda6-[1,4,3]oxathiazin-2-yl)-amine]"
8,19 nM,"CC1(C(F)(F)F)OC(NC2CCCCC2)=NS(=O)(=O)C12CC2 (stereo not shown) [Example 13, Cyclohexyl-(8-methyl-4,4-dioxo-8-trifluoromethyl-7-oxa-4lambda6-thia-5-aza-spiro[2.5]oct-5-en-6-yl)-amine]"
9,4 nM,"CC1(C)OC(NC23CCC(CC2)CC3)=NS(=O)(=O)C1(C)C [Example 15, Bicyclo[2.2.2]oct-1-yl-(5,5,6,6-tetramethyl-4,4-dioxo-5,6-dihydro-4H-4lambda6-[1,4,3]oxathiazin-2-yl)-amine]"
10,586 nM,"CC(C)(O)C[C@H](NC1=NS(=O)(=O)C(C)(C)C(C)(C)O1)c1cccnc1 [Example 16, (S)-2-Methyl-4-pyridin-3-yl-4-(5,5,6,6-tetramethyl-4,4-dioxo-5,6-dihydro-4H-4lambda6-[1,4,3]oxathiazin-2-ylamino)-butan-2-ol]"
11,560 nM,"CC1(C)OC(N[C@H]2CCC[C@H](O)C2)=NS(=O)(=O)C1(C)C [Example 18, (1S,3S)-3-(5,5,6,6-Tetramethyl-4,4-dioxo-5,6-dihydro-4H-4lambda6-[1,4,3]oxathiazin-2-ylamino)-cyclohexanol]"
12,5 nM,"C[C@H](NC1=NS(=O)(=O)C(C)(C)C(C)(C)O1)c1ccccc1F [Example 21, [(S)-1-(2-Fluoro-phenyl)-ethyl]-(5,5,6,6-tetramethyl-4,4-dioxo-5,6-dihydro-4H-4lambda6-[1,4,3]oxathiazin-2-yl)-amine]"
13,289 nM,"CC1(C)OC(N[C@@H]2CCC[C@@H](O)C2)=NS(=O)(=O)C1(C)C [Example 25, (1R,3R)-3-(5,5,6,6-Tetramethyl-4,4-dioxo-5,6-dihydro-4H-4lambda6-[1,4,3]oxathiazin-2-ylamino)-cyclohexanol]"
